Where “and” joins values, the source holds several entries; their conditions need not be identical. Equal values may be shown once.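 96-well plates; 48 h exposure; 5 concentrations. Endpoints by linear interpolation between flanking doses. Not reached: highest tested concentration assigned. Here, GI50 denotes the concentration required for 50% inhibition of growth. Definition used: TGI = concentration required for complete inhibition of growth.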 Bounds are passed on as bounds.

GI50 and TGI data for seven compounds are collected here from PubChem BioAssay (NCI).

Among the test systems are CAKI-1 renal; HCT-116 colon; IGROV1 ovarian; NCI-H460 lung; PC-3 prostate; SF-268 CNS; SK-MEL-28 melanoma; TK-10 renal; UACC-62 melanoma; UO-31 renal.
Common to all, as to experiment: DTP human tumour cell line panel, 48 h

Broadly, the GI50 is the concentration at which growth is held to half of that of the control. As a reminder, the TGI is the concentration at which net growth stops. Low values mean more potent growth arrest, high ones less potent growth arrest. `CCCN(CCC)C(=O)[C@H](CC)[C@@H]1CC[C@@H](C)[C@@H]([C@H](C)[C@@H](O)[C@@H](C)C(=O)[C@H](CC)C2O[C@]3(C=C[C@@H](O)[C@]4(CC[C@@](C)([C@H]5CC[C@](O)(CC)[C@H](C)O5)O4)O3)[C@H](C)C[C@@H]2C)O1` (stereo not given in full): the GI50 with CAKI-1 renal is 1.95 µM; in the experiment with HCT-116 colon, 2.16 µM; in the experiment on IGROV1 ovarian, 2.59 µM; in the experiment with NCI-H460 lung, 2.07 µM; with PC-3 prostate it was 2.05 µM; in the experiment on SF-268 CNS it was 3.43 µM. In addition, the GI50 in the experiment with SK-MEL-28 melanoma was 4.5 µM; in the experiment on TK-10 renal, 3.3 µM; in the experiment on UACC-62 melanoma, 1.71 µM; in the experiment on UO-31 renal, 2.12 µM. The total growth inhibition concentration (TGI) came to 8.7 µM in the experiment on CAKI-1 renal; 5.98 µM in the experiment with HCT-116 colon; 10.5 µM in the experiment with IGROV1 ovarian; 4.62 µM in the experiment on NCI-H460 lung; 11 µM in the experiment on PC-3 prostate; 22.7 µM in the experiment with SF-268 CNS. Besides, the concentration for total growth inhibition (TGI) amounted to 17.9 µM in the experiment with SK-MEL-28 melanoma, 68.3 µM with TK-10 renal, 4.93 µM with UACC-62 melanoma and 7.03 µM in the experiment with UO-31 renal.
`CN(C)c1ccc(O)c2c1C[C@H]1C[C@H]3[C@H](N(C)C)C(=O)C(C(N)=O)=C(O)[C@@]3(O)C(=O)C1=C2O`: the GI50 in the experiment on CAKI-1 renal is 2.16 µM; with HCT-116 colon, 3.86 µM; in the experiment with IGROV1 ovarian, 3.42 µM; with NCI-H460 lung, 3.45 µM; in the experiment on PC-3 prostate it was 6.61 µM; in the experiment with SF-268 CNS it was 5.46 µM. Moreover, the GI50 in the experiment on SK-MEL-28 melanoma was 7.52 µM; in the experiment on TK-10 renal, 16 µM; in the experiment with UACC-62 melanoma it was 3.35 µM; with UO-31 renal it was 3.65 µM. For the same compound, the concentration for total growth inhibition (TGI) in the experiment with CAKI-1 renal was 20.9 µM; with HCT-116 colon, 35 µM; in the experiment on IGROV1 ovarian it was 27.8 µM; with NCI-H460 lung it was 20.7 µM; in the experiment with PC-3 prostate, 93.2 µM; in the experiment on SF-268 CNS it was above 100 µM. Further, the TGI was 48.4 µM with SK-MEL-28 melanoma, above 100 µM in the experiment with TK-10 renal, 16.9 µM with UACC-62 melanoma and 79.8 µM in the experiment on UO-31 renal.
Consider `COc1ccc2nc(C)cc(Nc3ccccc3O)c2c1`, for which the GI50 in the experiment with CAKI-1 renal was 36.1 µM; with HCT-116 colon it was 15 µM; with IGROV1 ovarian it was 31.4 µM; with NCI-H460 lung it was 19.4 µM; with PC-3 prostate, 29.9 µM; in the experiment on SF-268 CNS, 29.2 µM. Besides, the GI50 is 21.3 µM in the experiment with SK-MEL-28 melanoma, 50.6 µM in the experiment on TK-10 renal, 17.9 µM in the experiment with UACC-62 melanoma and 21.2 µM in the experiment with UO-31 renal. Moreover, the TGI is above 100 µM in the experiment with CAKI-1 renal; 82 µM in the experiment on HCT-116 colon; above 100 µM in the experiment with IGROV1 ovarian; 54.4 µM with NCI-H460 lung; above 100 µM with PC-3 prostate; above 100 µM with SF-268 CNS. Moreover, the TGI in the experiment on SK-MEL-28 melanoma was 57.3 µM; in the experiment with TK-10 renal, above 100 µM; with UACC-62 melanoma, 39.5 µM; with UO-31 renal it was above 100 µM.
Regarding `CCOC(=O)C#Cc1c(CC(=O)OCC)nnn1[C@H]1O[C@@H](CO)[C@@H]2OC(C)(C)O[C@@H]21`, the GI50 was 1.71 µM with CAKI-1 renal; 2.06 µM with HCT-116 colon; 16.1 µM in the experiment with IGROV1 ovarian; 15 µM in the experiment on NCI-H460 lung; 16.1 µM in the experiment on PC-3 prostate; 16.3 µM in the experiment with SF-268 CNS. Besides, the GI50 is 3.33 µM in the experiment with SK-MEL-28 melanoma, 1.76 µM in the experiment with TK-10 renal, 1.84 µM with UACC-62 melanoma and 2.82 µM in the experiment with UO-31 renal. In addition, the TGI in the experiment with CAKI-1 renal was found to be 3.15 µM; with HCT-116 colon, 4.1 µM; in the experiment with IGROV1 ovarian it was 36.6 µM; with NCI-H460 lung, 33.2 µM; in the experiment on PC-3 prostate, 31 µM; in the experiment on SF-268 CNS it was 34.6 µM. The TGI in the experiment with SK-MEL-28 melanoma was 11.4 µM; in the experiment with TK-10 renal, 3.39 µM; in the experiment with UACC-62 melanoma it was 4.14 µM; in the experiment with UO-31 renal, 10.3 µM.
As for `CC1/C(=N/Nc2ccc([N+](=O)[O-])cc2)CC2C3(C)CCC2(C(C)C(=O)O)C(=O)C13` (stereo not given), the GI50 with CAKI-1 renal was 5.95 µM; in the experiment on HCT-116 colon it was 6.97 µM; with IGROV1 ovarian, above 100 µM; with NCI-H460 lung it was 5.88 µM; in the experiment on PC-3 prostate, 34.4 µM; with SF-268 CNS it was 33.5 µM. The GI50 was above 100 µM in the experiment on SK-MEL-28 melanoma, 9.98 µM in the experiment on TK-10 renal, 6.51 µM in the experiment on UACC-62 melanoma and 4.31 µM in the experiment on UO-31 renal. The total growth inhibition concentration (TGI) in the experiment with CAKI-1 renal, in the experiment with HCT-116 colon, with IGROV1 ovarian, with NCI-H460 lung, in the experiment on PC-3 prostate and with SF-268 CNS was above 100 µM in each case. Moreover, the TGI with SK-MEL-28 melanoma, in the experiment with TK-10 renal, in the experiment with UACC-62 melanoma and in the experiment with UO-31 renal was above 100 µM throughout.
As to `Cc1ccc(S(=O)(=O)Nc2nc3ccccc3nc2Nc2ccc3nsnc3c2)cc1`, the GI50 is 3.36 µM and 2.33 µM in the experiment with CAKI-1 renal; 3.52 µM with HCT-116 colon; 4.16 µM and 2.7 µM with IGROV1 ovarian; 3.36 µM and 2.92 µM in the experiment with NCI-H460 lung; 3.22 µM and 2.91 µM with PC-3 prostate; 3.93 µM and 4.35 µM in the experiment on SF-268 CNS. For the same compound, the GI50 was 4.38 µM and 4.11 µM in the experiment with SK-MEL-28 melanoma; 5.18 µM and 3.14 µM with TK-10 renal; 1.81 µM and 2.02 µM with UACC-62 melanoma; 1.94 µM and 1.58 µM with UO-31 renal. Besides, the TGI is above 100 µM with CAKI-1 renal; 15.4 µM and > 100 µM with HCT-116 colon; > 100 µM and 59.4 µM in the experiment on IGROV1 ovarian; 70.7 µM and > 100 µM with NCI-H460 lung; above 100 µM with PC-3 prostate; above 100 µM with SF-268 CNS. For the same compound, the TGI in the experiment on SK-MEL-28 melanoma was above 100 µM; with TK-10 renal, above 100 µM; with UACC-62 melanoma it was 10.4 µM and > 28.2 µM; in the experiment on UO-31 renal it was 19 µM and 6.49 µM.
With `Clc1ccc2c(c1)-c1ccccc1C1=NCCN12`, the GI50 is 1.83 µM with CAKI-1 renal; 0.719 µM in the experiment with HCT-116 colon; 2.14 µM in the experiment on IGROV1 ovarian; 1.49 µM in the experiment with NCI-H460 lung; 2.03 µM in the experiment on PC-3 prostate; 1.91 µM in the experiment on SF-268 CNS. The GI50 in the experiment with SK-MEL-28 melanoma was 1.74 µM; with TK-10 renal it was 1.87 µM; in the experiment on UACC-62 melanoma, 1.6 µM; in the experiment with UO-31 renal, 1.28 µM. In addition, the total growth inhibition concentration (TGI) in the experiment with CAKI-1 renal worked out at 5.8 µM; in the experiment on HCT-116 colon, 6.86 µM; in the experiment on IGROV1 ovarian, 5.36 µM; in the experiment on NCI-H460 lung, 4.51 µM; in the experiment with PC-3 prostate, 6.83 µM; in the experiment on SF-268 CNS it was 5.42 µM. The concentration for total growth inhibition (TGI) in the experiment with SK-MEL-28 melanoma worked out at 3.54 µM; with TK-10 renal it was 5.51 µM; with UACC-62 melanoma, 3.48 µM; in the experiment on UO-31 renal, 2.8 µM.
